Here are results for 44 compounds from US6211244A, “Calcium receptor-active compounds” (priority 1995, dated 2001).

The assay addresses T1, human calcium receptor (Homo sapiens, UniProt P41180, R990G).
T1 construct: expressed in transfected cells; host or cells: HEK 293
T1 sequence (P41180 20-1078 R990G): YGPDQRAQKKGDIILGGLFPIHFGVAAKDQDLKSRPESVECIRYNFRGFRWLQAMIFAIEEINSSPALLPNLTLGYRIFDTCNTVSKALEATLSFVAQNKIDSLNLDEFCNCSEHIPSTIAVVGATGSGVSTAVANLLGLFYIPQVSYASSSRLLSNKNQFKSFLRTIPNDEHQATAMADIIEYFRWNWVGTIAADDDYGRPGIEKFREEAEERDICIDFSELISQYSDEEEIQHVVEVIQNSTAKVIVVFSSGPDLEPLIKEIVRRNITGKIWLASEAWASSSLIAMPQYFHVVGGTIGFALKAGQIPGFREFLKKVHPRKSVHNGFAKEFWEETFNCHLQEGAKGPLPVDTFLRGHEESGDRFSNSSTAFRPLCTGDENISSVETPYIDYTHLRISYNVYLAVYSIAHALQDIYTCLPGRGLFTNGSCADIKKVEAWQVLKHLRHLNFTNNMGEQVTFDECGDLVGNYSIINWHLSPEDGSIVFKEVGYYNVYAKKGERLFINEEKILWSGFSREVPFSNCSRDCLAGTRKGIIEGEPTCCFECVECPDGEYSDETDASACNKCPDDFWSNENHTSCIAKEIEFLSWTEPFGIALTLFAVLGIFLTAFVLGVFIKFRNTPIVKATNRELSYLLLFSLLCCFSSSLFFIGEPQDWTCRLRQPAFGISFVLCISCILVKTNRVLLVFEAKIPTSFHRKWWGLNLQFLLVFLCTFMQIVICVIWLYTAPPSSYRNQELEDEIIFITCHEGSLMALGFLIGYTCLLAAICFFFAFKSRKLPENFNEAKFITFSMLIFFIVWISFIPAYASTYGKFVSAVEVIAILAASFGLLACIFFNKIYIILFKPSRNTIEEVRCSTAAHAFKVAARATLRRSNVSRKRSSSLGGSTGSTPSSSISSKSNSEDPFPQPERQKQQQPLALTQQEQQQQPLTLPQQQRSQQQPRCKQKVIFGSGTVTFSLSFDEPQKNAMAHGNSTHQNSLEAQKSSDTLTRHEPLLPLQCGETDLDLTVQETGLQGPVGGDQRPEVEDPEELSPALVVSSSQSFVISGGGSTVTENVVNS
As to the kind of experiment: increases in [Ca^2+ ]i in HEK-293 cells expressing the human calcium receptor (fura-2 loaded HEK 293/pHuPCaR4.0 cells), % activity. The assay is classed as cell-based.

“And” between values parts separate entries of the source, which are not always exact repeats. Equal values may be shown once. Read-outs that look alike come from different tables or passages of the source.

`CC(NCC=Cc1ccccc1[N+](=O)[O-])c1ccccc1` (stereo not drawn) [Compound 5M]: the “% activity” value (33 ng/mL) was 21% and the “% activity” value (330 ng/mL) is on record as 73%.
As for `CC(C)Cc1ccc(C(C)CNC(C)c2cccc3ccccc23)cc1` (mixture of isomers) [Compound 14A], the “% activity” value was determined as 10% (33 ng/mL), 78% (330 ng/mL) and 98% (3300 ng/mL).
On the same counts, the results for `COc1cccc(C(C)NCc2ccc(C=Cc3ccccc3)cc2)c1` (stereo not drawn) [Compound 12M] are 56%, 86% and 98%.
Taken in the same sequence, the figures for `COc1ccc(CNC(C)c2cccc(C(F)(F)F)c2)cc1C` (stereo not drawn) [Compound 24C] were 87%, 113% and 116%.
In the case of `COc1ccc(CNC(C)c2cccc(C)c2)cc1C` (stereo not drawn) [Compound 23Y], the “% activity” value reads like this: (33 ng/mL) 61%; (330 ng/mL) 87%; (3300 ng/mL) 106%.
On to `COc1ccc(CNC(C)c2cccc(SC)c2)cc1C` (stereo not drawn) [Compound 24Z], for which the “% activity” value is, setting by setting: (33 ng/mL) 135%; (330 ng/mL) 138%; (3300 ng/mL) 138%.
With `COc1ccc(CNC(C)c2ccc(OC)c3ccccc23)cc1C` (stereo not drawn) [Compound 18C], the “% activity” value (33 ng/mL) is on record as 60%, the “% activity” value (330 ng/mL) came to 87% and the “% activity” value (3300 ng/mL) was 99%.
For the compound `C[C@@H](NCCc1ccccc1)c1cccc2ccccc12` [Compound 14N], the “% activity” value (33 ng/mL) was found to be 55% and the “% activity” value (330 ng/mL) was found to be 89%.
Taken in the same sequence, the figures for `C[C@@H](NCc1ccc(Cl)c(Cl)c1)c1cccc2ccccc12` [Compound 13R] were 98% and 132%.
Taken in the same sequence, the figures for `C[C@@H](NCc1ccc(C#N)cc1)c1cccc2ccccc12` [Compound 16Z] were 51% and 88%.
As for `COc1cccc([C@@H](C)NCCCc2ccc(F)cc2)c1` [Compound 4P], the “% activity” value (330 ng/mL) was 81% and 61%.
With `COc1cccc(C(C)NC(C)c2ccc(C(C)(C)C)cc2)c1` (mixture of isomers) [Compound 13G], the “% activity” value by setting is: (33 ng/mL) 82%; (330 ng/mL) 128%; (3300 ng/mL) 111%.
For the compound `COc1cccc(CCNC(C)c2cccc3ccccc23)c1` (stereo not drawn) [Compound 15I], the “% activity” value is, setting by setting: (33 ng/mL) 75%; (330 ng/mL) 93%; (3300 ng/mL) 111%.
In the case of `CC(NCCCc1ccccc1)c1c[nH]c2ccccc12` (stereo not drawn) [Compound 2Q], the “% activity” value is listed as 4% (33 ng/mL) and 56% (330 ng/mL).
In the case of `CC(NCCCc1ccccc1Cl)c1cccc(Cl)c1` (stereo not drawn) [Compound 24O], the “% activity” value by setting is: (33 ng/mL) 58%; (330 ng/mL) 114%; (3300 ng/mL) 137%.
On the same counts, the results for `COc1ccc(CNC(C)c2cccc(Br)c2)cc1C` (stereo not drawn) [Compound 23Q] are 98%, 114% and 122%.
As to `Cc1cccc(C(C)NCCC(c2ccccc2)c2ccccc2)c1` (stereo not drawn) [Compound 3M], the “% activity” value (33 ng/mL) is given as 19% and the “% activity” value (330 ng/mL) amounted to 64%.
Take `C[C@@H](NCc1ccc(F)cc1)c1cccc2ccccc12` [Compound 13T]: the “% activity” value reads like this: (33 ng/mL) 53%; (330 ng/mL) 90%.
For `C[C@@H](NCCCc1cccc(C(F)(F)F)c1)c1cccc2ccccc12` [Compound 22J], the “% activity” value (33 ng/mL) was found to be 71% and the “% activity” value (330 ng/mL) came to 99%.
On to `C[C@@H](NCc1ccc(C(C)(C)c2ccccc2)cc1)c1cccc2ccccc12` [Compound 12N], for which the “% activity” value by setting is: (33 ng/mL) 102%; (330 ng/mL) 106%; (3300 ng/mL) 115%.
On the same counts, the results for `COc1ccc(C(C)NC(C)c2cccc3ccccc23)cc1` (stereo not drawn) [Compound 16J] are 47%, 76% and 92%.
With `COc1ccc([C@H](C)N[C@H](C)c2cccc3ccccc23)cc1C` [Compound 25U], the “% activity” value is, setting by setting: (33 ng/mL) 95%; (330 ng/mL) 107%; (3300 ng/mL) 107%.
As to `COc1ccc(CNC(C)c2ccc(F)cc2)cc1C` (stereo not drawn) [Compound 23L], the “% activity” value reads like this: (33 ng/mL) 37%; (330 ng/mL) 77%; (3300 ng/mL) 107%.
As for `C[C@@H](NCCCc1ccccc1Cl)c1cccc(OC(F)(F)F)c1` [Compound 7U], the “% activity” value (330 ng/mL) was determined as 49%.
`CC(NC(C)c1cccc2ccccc12)c1ccc(Cl)c(Cl)c1` (stereo not drawn) [Compound 17K]: the “% activity” value (33 ng/mL) came out at 73%, the “% activity” value (330 ng/mL) came to 97% and the “% activity” value (3300 ng/mL) was determined as 98%.
As to `COc1cccc([C@@H](C)NCCCc2ccccc2F)c1` [Compound 21R], the “% activity” value (33 ng/mL) worked out at 66% and the “% activity” value (330 ng/mL) was 100%.
Turning to `COc1cccc([C@H](C)NC[C@H](C)C=Cc2ccccc2)c1` [Compound 25I, (S,R)-N-(2-methyl-4-phenybut-3-enyl)-1-(3-methoxyphenyl)ethylamine], the “% activity” value reads like this: (33 ng/mL) 114%; (330 ng/mL) 113%; (3300 ng/mL) 119%.
On to `COc1cccc([C@@H](C)NCCCc2ccc(C(C)C)cc2)c1` [Compound 12Y], for which the “% activity” value runs as follows: (33 ng/mL) 46%; (330 ng/mL) 80%.
For `CC(=O)c1ccc(CN[C@H](C)c2cccc3ccccc23)cc1` [Compound 17C], the “% activity” value is, setting by setting: (33 ng/mL) 99%; (330 ng/mL) 120%; (3300 ng/mL) 113%.
For the compound `COc1ccc(CNC(C)c2cccc(Cl)c2)cc1C` (stereo not drawn) [Compound 23N], the “% activity” value reads like this: (33 ng/mL) 50%; (330 ng/mL) 96%.
`CC(NC(C)c1ccc(C(C)(C)C)cc1)c1ccccc1` (mixture of isomers) [Compound 13H]: the “% activity” value by setting is: (33 ng/mL) 36%; (330 ng/mL) 48%; (3300 ng/mL) 88%.
As to `COc1ccc(CNC(C)c2cccc(-c3ccccc3)c2)cc1C` (stereo not drawn) [Compound 18T], the “% activity” value was 52% (33 ng/mL), 74% (330 ng/mL) and 99% (3300 ng/mL).
In the case of `CC(NCCCc1ccccc1)c1ccccc1` (stereo not drawn) [Compound 3H], the “% activity” value (330 ng/mL) worked out at 84%.
Take `C[C@@H](N[C@H](C)c1cccc2ccccc12)c1cccc(Cl)c1` [Compound 14Q]: the “% activity” value amounted to 78% (33 ng/mL) and 101% (330 ng/mL).
`CC(NC(C)c1cccc2ccccc12)c1ccc(Cl)cc1` (stereo not drawn) [Compound 14S]: the “% activity” value by setting is: (33 ng/mL) 105%; (330 ng/mL) 106%; (3300 ng/mL) 116%.
In the case of `C[C@@H](NCCCc1cccc(OC(F)(F)F)c1)c1cccc2ccccc12` [Compound 24J], the “% activity” value reads like this: (33 ng/mL) 75%; (330 ng/mL) 103%.
As to `COc1ccc([C@H](C)N[C@@H](C)c2cccc3ccccc23)cc1C` [Compound 25V], the “% activity” value was 43% (33 ng/mL), 59% (330 ng/mL) and 89% (3300 ng/mL).
For `CC(NCCC(c1ccccc1)c1ccccc1)c1ccc(O)cc1` (stereo not drawn) [Compound 3R], the “% activity” value amounted to 45. Also, the “% activity” value (33 ng/mL) was determined as 2%.
Take `COc1cccc([C@@H](C)NC(C)CCc2cc(F)cc(F)c2)c1` (stereo partly drawn) [Compound 24P]: the “% activity” value is reported as 110% (33 ng/mL), 138% (330 ng/mL) and 140% (3300 ng/mL).
On to `COc1ccc(CN[C@H](C)c2cccc3ccccc23)cc1Cl.Cl` [Compound 17M, N-(3-chloro-4-methoxybenzyl)-(R)-1-(1-naphthyl) ethylamine hydrochloride], for which the “% activity” value turned out to be 99% (33 ng/mL) and 115% (330 ng/mL).
Regarding `C[C@@H](NCc1ccc(OC(F)(F)F)cc1)c1cccc2ccccc12` [Compound 23F], the “% activity” value worked out at 45% (33 ng/mL) and 82% (330 ng/mL).
`COc1cccc(C(C)NC(C)c2cccc3ccccc23)c1` (stereo not drawn) [Compound 14Z]: the “% activity” value (33 ng/mL) came out at 82%, the “% activity” value (330 ng/mL) was determined as 103% and the “% activity” value (3300 ng/mL) is 118%.
As for `Cc1cc(C(C)NC(C)c2cccc3ccccc23)ccc1O` (stereo not drawn) [Compound 17W], the “% activity” value is, setting by setting: (33 ng/mL) 67%; (330 ng/mL) 92%.
Taken in the same sequence, the figures for `CC(NCCC(c1ccccc1)c1ccccc1)c1ccccc1F` (stereo not drawn) [Compound 3A] were 7% and 41%.
